Legend:
[1] = Non-human primate CSF pharmacokinetics (Study B), cisterna magna versus lumbar sampling; type: in vivo, cynomolgus monkeys
Protocol: The objective of this study was to investigate the pharmacokinetics of Compound I-14 after administration of a single […] bolus or oral gavage dose to cynomolgus monkeys on Day 1 and to evaluate differences in pharmacokinetic values when comparing CSF collected at the cisterna magna (as in Example 10A) versus lumbar locations.
Single doses of Compound I-14 were administered intravenously as a bolus injection of a solution at 0.15 mg/kg and orally by gavage as a suspension at 0.5 mg/kg to a group of four female cynomolgus monkeys in a crossover design. Plasma samples were collected at 0.25 (15 min), 0.5 (30 min), 1, 2, 3, 6, 8, 12, 24, 32, and 48 h following the IV and PO doses. CSF samples were collected at 3 and 24 h for all animals from the cisterna magna in groups 1 and 2 and the lumbar from groups 3 and 4. Sample extracts were prepared by protein precipitation and Compound I-14 concentrations were measured using LC-MS/MS. Pharmacokinetic parameters were calculated.

[2] = test system: MPTP-induced cognitive deficits; test: Chronic low dose MPTP-lesioned macaque model of cognitive deficits in Parkinson's disease; type: in vivo, cynomolgus macaques; conditions: 3.0 mg/kg oral daily monotherapy
From the text: This study was a non-GLP study in the chronic low dose MPTP-lesioned macaque model of Parkinson's disease. This model has been described in the literature (https://www.ncbi.nlm.nih.gov/pmc/articles/PMC3282499/). The study was designed to assess effects of Compound I-14, administered as monotherapy, on performance of the following cognitive tasks: variable delayed response (VDR), continuous performance (CPT), visual discrimination reversal learning (SDR) and object retrieval (OR). The study was conducted in animals that had received prior treatment with low doses of MPTP and were known to have difficulties in the performance of the above-mentioned tasks. These studies utilised four male cynomolgus macaques with MPTP-induced cognitive deficits. The study had 4 parts. The first part of the study was to collect baseline data from the four animals on the four tasks to be studied. The second part of the study was to administer vehicle (sterile, filtered distilled water) over a 16 day period and collect vehicle data on the four tasks once per week for two weeks. In the third part of the study, Compound I-14 was administered orally daily for five days and then data were collected on the four tasks once per week for two weeks, with continued daily administration of Compound I-14 (3.0 mg/kg) 2 hrs. prior to each days testing. In the final part of the study, there was a 9 day washout period and then data were collected on the four tasks once per week for two weeks. One dose of Compound I-14 was assessed as monotherapy (3.0 mg/kg) following five days of pre-dosing and daily dosing for two weeks. The effects of the treatment on cognitive performance was assessed 2 hrs. after daily drug administration and during drug washout. MPTP-HCl was administered by i.v. injection at doses ranging from 0.05 mg/kg to 0.30 mg/kg, 2 to 3 times per week for several months. MPTP administration continued until cognitive deficits appeared with minimal/mild parkinsonian motor impairment. Animals were considered “cognitively impaired” if they show at least a 15% decrease in cognitive task performance from pre-MPTP baseline levels. Because response to MPTP is somewhat idiosyncratic, MPTP was administered to effect (i.e., development of cognitive deficits and then development of motor deficits), rather than given for a particular duration of exposure or a particular cumulative dose of MPTP. […] The measure recorded for each session is: 1) total number of trials needed to learn the initial discrimination (i.e. reach the specified criterion of 14/16 correct, and; 2) total number of trials needed to learn (i.e., reach the same criterion as mentioned above) the reversal in which the previously negative (unrewarded) stimulus is now the positive (rewarded) stimulus (i.e., reach criterion). […]

geomean ratio of CSF concentration to unbound concentration in plasma ([1]; 3 hours, IV dosing, cisterna magna sampling): C (2<Kp,uu≤3=C) | geomean ratio of CSF concentration to unbound concentration in plasma ([1]; 3 hours, IV dosing, lumbar sampling): C (2<Kp,uu≤3=C) | geomean ratio of CSF concentration to unbound concentration in plasma ([1]; 3 hours, oral dosing, cisterna magna sampling): C (2<Kp,uu≤3=C) | geomean ratio of CSF concentration to unbound concentration in plasma ([1]; 3 hours, oral dosing, lumbar sampling): C (2<Kp,uu≤3=C) | geomean ratio of CSF concentration to unbound concentration in plasma ([1]; 24 hours, IV dosing, cisterna magna sampling): B (1<Kp,uu≤2=B) | geomean ratio of CSF concentration to unbound concentration in plasma ([1]; 24 hours, IV dosing, lumbar sampling): B (1<Kp,uu≤2=B) | geomean ratio of CSF concentration to unbound concentration in plasma ([1]; 24 hours, oral dosing, cisterna magna sampling): C (2<Kp,uu≤3=C) | geomean ratio of CSF concentration to unbound concentration in plasma ([1]; 24 hours, oral dosing, lumbar sampling): C (2<Kp,uu≤3=C)
SMILES: Cc1cc(F)c(Cc2nc(-c3ncc(F)c(O)n3)cn3ccnc23)cc1F [Compound I-14, 5-fluoro-2-(8-(2,5-difluoro-4-methylbenzyl)imidazo[1,2-a]pyrazin-6-yl)pyrimidin-4-ol]
Simple discrimination performance [2]: not significantly changed | number of trials needed to reach criterion to learn the discrimination reversal [2]: significantly reduced | animals failing to learn the discrimination reversal ([2]; four animals): none of the animals failed to learn the reversal | SDR (discrimination reversal) performance ([2]; tested 2 hrs after dosing): significantly improved performance

Reference: US20240207265A1, “TREATMENT OF CNS DISEASES WITH sGC STIMULATORS” (Tisento Therapeutics Inc., priority 2021, published 2024)
